Literature values, collected in patent publication US20120309847A1, “DOSING REGIMENS AND METHODS FOR TREATING OR PREVENTING PROMYELOCYTIC LEUKEMIA” (NBI Pharmaceuticals, Inc., priority 2011, published 2012).

Experiments:
APL [1] = conditions: ATRA combined with anthracycline based chemotherapy; cited from earlier work
APL [2] = conditions: enocitabine 100-200 mg/m^2 continuous infusion 7 days combined with daunorubicin i.v. 3 days; cited from earlier work

| Structure (SMILES) | clinical remission, share of patients (APL [1]) | long-term disease-free survival (APL [2]) [%] |
| --- | --- | --- |
| CC1=C(/C=C/C(C)=C/C=C/C(C)=C/C(=O)O)C(C)(C)CCC1 [ATRA, all-trans retinoic acid] | approximately 90% |  |
| CCCCCCCCCCCCCCCCCCCCCC(=O)Nc1ccn([C@@H]2O[C@H](CO)[C@@H](O)[C@@H]2O)c(=O)n1 [enocitabine] |  | ~30 |
